US9359330B2, “Substituted piperidines as sodium channel blockers” (Purdue Pharma L.P., priority 2013, dated 2016)

molecular target: hNav1.7 (Homo sapiens (Human), UniProt Q15858); assay: Electrophysiology (EP) whole-cell patch clamp assay, hNav1.7 expressing HEK-293 cells; type: cell-based; conditions: affinity for inactivated channels; read-out: Nav1.7 Activity EP assay Ki
Sequence (Q15858 other isoform, or with tags, fused parts or gaps): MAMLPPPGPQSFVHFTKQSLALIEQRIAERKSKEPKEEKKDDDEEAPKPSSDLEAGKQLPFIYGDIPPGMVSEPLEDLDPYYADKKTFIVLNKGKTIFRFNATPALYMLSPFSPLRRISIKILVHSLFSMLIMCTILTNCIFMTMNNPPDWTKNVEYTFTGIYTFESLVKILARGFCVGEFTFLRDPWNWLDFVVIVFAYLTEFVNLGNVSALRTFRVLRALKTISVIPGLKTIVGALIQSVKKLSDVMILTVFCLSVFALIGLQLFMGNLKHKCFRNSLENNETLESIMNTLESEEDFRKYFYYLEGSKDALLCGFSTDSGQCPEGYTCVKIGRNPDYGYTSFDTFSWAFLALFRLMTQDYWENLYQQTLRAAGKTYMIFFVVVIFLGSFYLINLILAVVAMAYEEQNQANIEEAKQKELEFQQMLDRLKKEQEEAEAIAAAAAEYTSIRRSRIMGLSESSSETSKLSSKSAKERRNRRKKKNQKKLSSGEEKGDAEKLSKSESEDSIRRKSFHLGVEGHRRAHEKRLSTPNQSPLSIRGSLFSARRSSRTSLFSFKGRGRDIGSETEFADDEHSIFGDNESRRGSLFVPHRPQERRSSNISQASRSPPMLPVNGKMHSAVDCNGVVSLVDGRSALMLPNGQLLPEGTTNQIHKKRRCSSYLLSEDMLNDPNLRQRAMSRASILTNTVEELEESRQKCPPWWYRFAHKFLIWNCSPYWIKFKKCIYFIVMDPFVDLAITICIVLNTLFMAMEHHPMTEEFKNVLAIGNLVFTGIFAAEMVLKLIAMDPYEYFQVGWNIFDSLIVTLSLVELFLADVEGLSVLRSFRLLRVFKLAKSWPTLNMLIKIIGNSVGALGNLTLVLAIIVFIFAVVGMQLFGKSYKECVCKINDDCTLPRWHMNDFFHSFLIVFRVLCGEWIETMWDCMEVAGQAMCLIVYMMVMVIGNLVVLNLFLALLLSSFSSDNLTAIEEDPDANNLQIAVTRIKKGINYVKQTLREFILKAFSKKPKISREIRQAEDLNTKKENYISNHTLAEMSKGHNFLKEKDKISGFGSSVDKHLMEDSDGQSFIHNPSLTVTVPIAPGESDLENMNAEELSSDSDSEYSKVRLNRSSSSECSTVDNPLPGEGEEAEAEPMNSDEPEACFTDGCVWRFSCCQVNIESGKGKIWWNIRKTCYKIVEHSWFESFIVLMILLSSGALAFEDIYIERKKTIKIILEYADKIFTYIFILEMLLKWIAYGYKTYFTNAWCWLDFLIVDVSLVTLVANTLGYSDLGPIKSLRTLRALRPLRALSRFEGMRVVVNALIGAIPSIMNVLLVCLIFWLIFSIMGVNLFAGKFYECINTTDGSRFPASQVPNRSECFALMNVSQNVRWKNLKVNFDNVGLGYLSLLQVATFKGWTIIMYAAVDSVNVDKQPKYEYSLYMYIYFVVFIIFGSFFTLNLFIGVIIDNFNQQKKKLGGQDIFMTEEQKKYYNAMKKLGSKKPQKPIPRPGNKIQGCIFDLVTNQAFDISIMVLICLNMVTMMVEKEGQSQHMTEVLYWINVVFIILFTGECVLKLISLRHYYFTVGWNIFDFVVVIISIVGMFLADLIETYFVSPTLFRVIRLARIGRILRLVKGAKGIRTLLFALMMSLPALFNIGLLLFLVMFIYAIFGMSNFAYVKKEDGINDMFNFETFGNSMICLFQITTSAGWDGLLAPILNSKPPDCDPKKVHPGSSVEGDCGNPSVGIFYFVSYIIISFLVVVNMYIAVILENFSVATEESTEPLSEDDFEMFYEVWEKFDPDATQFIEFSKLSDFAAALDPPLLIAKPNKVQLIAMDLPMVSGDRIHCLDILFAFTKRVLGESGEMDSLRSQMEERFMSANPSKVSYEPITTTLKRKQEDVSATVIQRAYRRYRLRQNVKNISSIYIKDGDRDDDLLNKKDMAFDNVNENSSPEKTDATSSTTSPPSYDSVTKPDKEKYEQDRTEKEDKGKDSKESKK

Q: `COc1ncc(-c2ccccc2C2CCCN(C(=O)c3ccc(OCC(F)(F)F)nc3)C2)cn1` (stereo not drawn) [Compound 13, (3-(2-(2-methoxypyrimidin-5-yl)phenyl)piperidin-1-yl)(6-(2,2,2-trifluoroethoxy)pyridin-3-yl)methanone] was tested. Which Ki did it give?
A: 2.1 ± 0.384 µM

Q: With `COc1ncc(-c2ccccc2C2CCCN(C(=O)c3ccc(OCC(F)(F)F)cc3)C2)cn1` (stereo not drawn) [Compound 6, (3-(2-(2-methoxypyrimidin-5-yl)phenyl)piperidin-1-yl)(4-(2,2,2-trifluoroethoxy)phenyl) methanone] as the compound, how does the Ki read?
A: 0.511 ± 0.1 µM

same assay, conditions: resting block dissociation constant; read-out: Nav1.7 Activity EP assay Kr

Q: With `COc1ncc(-c2ccccc2C2CCCN(C(=O)c3ccc(OCC(F)(F)F)nc3)C2)cn1` (stereo not drawn) [Compound 13, (3-(2-(2-methoxypyrimidin-5-yl)phenyl)piperidin-1-yl)(6-(2,2,2-trifluoroethoxy)pyridin-3-yl)methanone] as the compound, how does the Kd read?
A: 115 ± 22.3 µM

Q: With `COc1ncc(-c2ccccc2C2CCCN(C(=O)c3ccc(OCC(F)(F)F)cc3)C2)cn1` (stereo not drawn) [Compound 6, (3-(2-(2-methoxypyrimidin-5-yl)phenyl)piperidin-1-yl)(4-(2,2,2-trifluoroethoxy)phenyl) methanone] as the compound, how does the Kd read?
A: 97.9 ± 9.3 µM

molecular target: human Nav1.7 (Homo sapiens (Human), UniProt Q15858); assay: FLIPR sodium dye assay with KCl and test article pre-incubation, recombinant Nav1.7/HEK293 cells; type: cell-based; conditions: Nav1.7, FLIPR assay
Sequence (Q15858 other isoform, or with tags, fused parts or gaps): as above

Q: For `CN(C)c1ncc(-c2ccccc2C2CCCN(C(=O)c3ccc(OCC(F)(F)F)cc3)C2)cn1` (stereo not drawn) [Compound 40, (3-(2-(2-(dimethylamino)pyrimidin-5-yl)phenyl)piperidin-1-yl)(4-(2,2,2-trifluoroethoxy)phenyl)methanone], which IC50 is on record?
A: 0.096 ± 0.006 µM

Q: Which IC50 does the source give for `O=C(c1ccc(OCC(F)(F)F)nc1)N1CCCC(c2ccccc2)C1` (stereo not drawn) [Compound 10, (3-phenylpiperidin-1-yl)(6-(2,2,2-trifluoroethoxy)pyridin-3-yl)methanone] here?
A: 1.6 ± 0.105 µM

Q: For `COc1ncc(-c2ccccc2C2CCCN(C(=O)c3ccc(OCC(F)(F)F)nc3)C2)cn1` (stereo not drawn) [Compound 13, (3-(2-(2-methoxypyrimidin-5-yl)phenyl)piperidin-1-yl)(6-(2,2,2-trifluoroethoxy)pyridin-3-yl)methanone], which IC50 is on record?
A: 0.873 ± 0.027 µM

Q: How did the IC50 turn out when `CN(C)c1ncc(-c2ccccc2C2CCCN(C(=S)Nc3ccc(C(F)(F)F)cc3)C2)cn1` (stereo not drawn) [Compound 29, 3-(2-(2-(dimethylamino)pyrimidin-5-yl)phenyl)-N-(4-(trifluoromethyl)phenyl)piperidine-1-carbothioamide] was run?
A: > 20 µM

Q: Which IC50 does the source give for `COc1ncc(-c2ccccc2C2CCCN(C(=O)c3cccnc3N)C2)cn1` (stereo not drawn) [Compound 28, (2-aminopyridin-3-yl)(3-(2-(2-methoxypyrimidin-5-yl)phenyl)piperidin-1-yl)methanone] here?
A: 2.57 ± 0.574 µM

Q: Which IC50 does the source give for `O=C(c1ccc(OCC(F)(F)F)nc1)N1CCCC(c2ccccc2O)C1` (stereo not drawn) [Compound 7, (3-(2-hydroxyphenyl)piperidin-1-yl)(6-(2,2,2-trifluoroethoxy)pyridin-3-yl)methanone] here?
A: 2.57 ± 0.062 µM

Q: For `CN(C)c1ncc(-c2ccccc2C2CCCN(S(=O)(=O)Nc3ncns3)C2)cn1` (stereo not drawn) [Compound 43, 3-(2-(2-(dimethylamino)pyrimidin-5-yl)phenyl)-N-(1,2,4-thiadiazol-5-yl)piperidine-1-sulfonamide], which IC50 is on record?
A: > 20 µM

Q: Which IC50 does the source give for `CN(C)c1ncc(-c2ccccc2C2CCCN(C(=O)c3ccc(OCC(F)(F)F)nc3)C2)cn1` (stereo not drawn) [Compound 18, (3-(2-(2-(dimethylamino)pyrimidin-5-yl)phenyl)piperidin-1-yl)(6-(2,2,2-trifluoroethoxy)pyridin-3-yl)methanone] here?
A: 0.558 ± 0.031 µM

Q: How did the IC50 turn out when `COc1ncccc1-c1ccccc1C1CCCN(C(=O)c2ccc(OCC(F)(F)F)nc2)C1` (stereo not drawn) [Compound 17, (3-(2-(2-methoxypyridin-3-yl)phenyl)piperidin-1-yl)(6-(2,2,2-trifluoroethoxy)pyridin-3-yl)methanone] was run?
A: 0.691 ± 0.06 µM

Q: With `COc1ccc(C(=O)N2CCCC(c3ccccc3-c3cnc(N(C)C)nc3)C2)cc1[C@H](O)CO` (stereo partly drawn) [Compound 35, (3-((S)-1,2-dihydroxyethyl)-4-methoxyphenyl)(3-(2-(2-(dimethylamino)pyrimidin-5-yl)phenyl)piperidin-1-yl)methanone] as the compound, how does the IC50 read?
A: 10 to 20 µM

Q: `O=C(c1ccc(OCC(F)(F)F)nc1)N1CCCC(c2ccccc2-c2ccc(O)nc2)C1` (stereo not drawn) [Compound 19, (3-(2-(6-hydroxypyridin-3-yl)phenyl)piperidin-1-yl)(6-(2,2,2-trifluoroethoxy)pyridin-3-yl)methanone] was tested. Which IC50 did it give?
A: 5.47 ± 0.22 µM

Q: `COc1ccc(C(=O)N2CCCC(c3ccccc3-c3cnc(N(C)C)nc3)C2)cc1` (stereo not drawn) [Compound 36, (3-(2-(2-(dimethylamino)pyrimidin-5-yl)phenyl)piperidin-1-yl)(4-methoxyphenyl)methanone] was tested. Which IC50 did it give?
A: 0.384 ± 0.08 µM

Q: With `CN(C)c1ncc(-c2ccccc2C2CCCN(C(=O)c3ccc(OC(F)(F)F)cc3)C2)cn1` (stereo not drawn) [Compound 39, (3-(2-(2-(dimethylamino)pyrimidin-5-yl)phenyl)piperidin-1-yl)(4-(tri-fluoromethoxy)phenyl)methanone] as the compound, how does the IC50 read?
A: 0.689 ± 0.035 µM

Q: How did the IC50 turn out when `CSc1ncc(-c2ccccc2C2CCCN(C(=O)c3ccc(OCC(F)(F)F)nc3)C2)cn1` (stereo not drawn) [Compound 16, (3-(2-(2-(methylthio)pyrimidin-5-yl)phenyl)piperidin-1-yl)(6-(2,2,2-trifluoroethoxy)pyridin-3-yl)methanone] was run?
A: 0.676 ± 0.039 µM

Q: For `CN(C)c1ncc(-c2ccccc2C2CCCN(C(=O)c3cccc(C(N)=O)c3)C2)cn1` (stereo not drawn) [Compound 37, 3-(3-(2-(2-(dimethylamino)-pyrimidin-5-yl)phenyl)piperidine-1-carbonyl) benzamide], which IC50 is on record?
A: > 20 µM

Q: For `COc1ccc(S(=O)(=O)N2CCCC(c3ccccc3-c3cnc(N(C)C)nc3)C2)cc1` (stereo not drawn) [Compound 32, 5-(2-(1-((4-methoxyphenyl)sulfonyl)piperidin-3-yl)phenyl)-N,N-dimethylpyrimidin-2-amine], which IC50 is on record?
A: 0.672 ± 0.118 µM

Q: Which IC50 does the source give for `COc1ccc(NC(=S)N2CCCC(c3ccccc3-c3cnc(N(C)C)nc3)C2)cc1` (stereo not drawn) [Compound 30, 3-(2-(2-(dimethylamino)pyrimidin-5-yl)phenyl)-N-(4-methoxyphenyl)piperidine-1-carbothioamide] here?
A: 2.52 ± 0.753 µM

Q: For `CN(C)c1ncc(-c2ccccc2C2CCCN(C(=O)c3ccc(C(N)=O)cc3)C2)cn1` (stereo not drawn) [Compound 38, 4-(3-(2-(2-(dimethylamino)-pyrimidin-5-yl)phenyl)piperidine-1-carbonyl) benzamide], which IC50 is on record?
A: > 20 µM

Q: With `COc1ncc(-c2ccccc2C2CCCN(C(=O)c3ccc(OCC(F)(F)F)cc3)C2)cn1` (stereo not drawn) [Compound 6, (3-(2-(2-methoxypyrimidin-5-yl)phenyl)piperidin-1-yl)(4-(2,2,2-trifluoroethoxy)phenyl) methanone] as the compound, how does the IC50 read?
A: 0.209 ± 0.016 µM

Q: How did the IC50 turn out when `O=C(c1ccc(OCC(F)(F)F)nc1)N1CCCC(c2ccccc2-c2ccc(F)nc2)C1` (stereo not drawn) [Compound 15, (3-(2-(6-fluoropyridin-3-yl)phenyl)piperidin-1-yl)(6-(2,2,2-trifluoroethoxy)pyridin-3-yl)methanone] was run?
A: 0.954 ± 0.153 µM

Q: For `COc1ccc(C(=O)N2CCCC(c3ccccc3-c3cnc(N(C)C)nc3)C2)cc1[C@@H](O)CO` (stereo partly drawn) [Compound 34, (3-((R)-1,2-dihydroxyethyl)-4-methoxyphenyl)(3-(2-(2-(dimethylamino)pyrimidin-5-yl)phenyl)piperidin-1-yl)methanone], which IC50 is on record?
A: > 20 µM

Q: `CN(C)c1ncc(-c2ccccc2C2CCCN(S(=O)(=O)c3ccc(OC(F)(F)F)cc3)C2)cn1` (stereo not drawn) [Compound 33, N,N-dimethyl-5-(2-(1-((4-(trifluoromethoxy)phenyl)sulfonyl)piperidin-3-yl)phenyl)pyrimidin-2-amine] was tested. Which IC50 did it give?
A: 0.376 ± 0.029 µM

Q: With `CN(C)c1ncc(-c2ccccc2C2CCCN(C(=O)Nc3ccc(OC(F)(F)F)cc3)C2)cn1` (stereo not drawn) [Compound 31, 3-(2-(2-(dimethylamino)pyrimidin-5-yl)phenyl)-N-(4-(trifluoromethoxy)phenyl)piperidine-1-carboxamide] as the compound, how does the IC50 read?
A: 0.941 ± 0.132 µM
